Molecular target: T1, HT-29(α2A) (Homo sapiens, UniProt P08913)
T1 construct: HT-29 and chinese hamster ovary (CHO) cells expressing the human α2A (CHO—C10) receptor; endogenous in cells; host or cells: HT-29
T1 sequence (P08913 1-465): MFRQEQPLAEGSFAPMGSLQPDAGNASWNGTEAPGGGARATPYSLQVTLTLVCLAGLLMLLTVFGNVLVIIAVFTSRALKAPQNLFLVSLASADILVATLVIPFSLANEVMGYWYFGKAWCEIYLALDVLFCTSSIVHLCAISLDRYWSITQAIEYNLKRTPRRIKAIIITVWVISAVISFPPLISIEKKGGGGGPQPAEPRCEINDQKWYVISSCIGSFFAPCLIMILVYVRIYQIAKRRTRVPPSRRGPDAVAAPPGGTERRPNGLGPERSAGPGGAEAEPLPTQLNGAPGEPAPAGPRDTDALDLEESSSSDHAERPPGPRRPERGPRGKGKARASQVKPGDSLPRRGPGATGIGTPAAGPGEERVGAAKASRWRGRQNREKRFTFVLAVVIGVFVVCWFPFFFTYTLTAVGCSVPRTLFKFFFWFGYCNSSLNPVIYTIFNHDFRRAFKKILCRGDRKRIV
Experiment: Radioligand binding, [3H]rauwolscine, HT-29 cell membranes
Conditions: values marked *: HT-29 cells, 22° C., 30 minutes
Experimental: Cell preparation: HT-29 and chinese hamster ovary (CHO) cells expressing the human α2A (CHO—C10) receptor and CHO cells (CHO—RNG) expressing the rat α2B adrenoceptor were grown to near confluency in Dulbecco's modified Eagle's medium supplemented with 10% fetal bovine serum using standard cell culture methods. Cells were harvested by scraping and placed into cold buffer of the following composition: 50 mM Tris-HCl, 5 mM EDTA, pH 7.4). Cells were then homogenized with a Polytron homogenizer for 2×10 secs at setting # 7, arid centrifuged for 20 minutes at 49,000×g. The pellet fraction was washed (resuspended in Tris-HCl, pH 8 buffer and centrifuged for 15-20 minutes at 49,000×g) 2 times and stored at −100° C. until binding assay.
Binding studies: The radioligands [^3H]rauwolscine (specific activity 80 Ci/mmol) and [^3H]prazosin (specific activity 76 Ci/mmol) were obtained from New England Nuclear, Boston, Mass. Frozen membrane pellet was resuspended in 25 mM glycine/glycine, pH 7.4 and incubated with radioligand under the following conditions: CHO—C10, CHO—RNG, HT-29-[^3H]rauwolscine, 22° C., 30 minutes; RKC-[^3H]rauwolscine, 0° C., 120 minutes; and, HCC-[^3H]prazosin, 22° C., 30 minutes in a final volume of 500 μl. At the end of the incubation period, the samples were filtered through glass fiber filters (Whatman GF/B) in a 96 well cell harvester and rapidly washed four times with 4 ml of ice-cold 50 mM, Tris-HCl buffer. The filters were then oven dried and transferred to scintillation vials containing 5 ml of Beckman's Ready Protein® scintillation cocktail for counting. Specific binding defined by 10 μM phentolamine for competition studies were as follows: 0.3 nM [^3H]rauwolscine—CHO—C10 99%; 0.4 nM[^3H]rauwolscine —CHO—RNG 99%; 0.7;nM [^3H]rauwolscine—HT-29 90%; 1 nm [^3]rauwolscine—RKC 92%, and 0.3 nM [^3H]prazosin—HCC 87%. Protein concentrations were determined with a protein assay kit from Bio Rad. Binding isotherms, equilibrium dissociation and affinity constants were analyzed and determined by the non-linear least squares curve fitting programs AccuFit Competition/Saturation by Beckman.
Binding studies: The radioligands [^3H]rauwolscine (specific activity 80 Ci/mmol), [^3H]prazosin (specific activity 76 Ci/mmol) and [^3H]brimonidine (UK-14,304; specific activity 63 Ci/mmol) were obtained from New England Nuclear, Boston, Mass. Frozen membrane pellet was resuspended either 50 mM tris, 2 mM EGTA, 1 mM MgCl2, pH7.5 (RbKC, RbICB-[^3H]brimonidine); 50 mM tris, 0.5 mM EDTA, 5 mM NaCl, pH 7.7 (RbICB-[^3H]rauwolscine); 25 mM glycine/glycine, pH 7.4 (RtKC, CHO—C10, CH—RNG, HT-29, HCC) or 50 mM tris, 0.1 mM MnCl2, pH7.7 (RtCC). Membrane protein homogenate (75-200 μg) was incubated with radioligand under the following conditions: RbKC and RbICB-[^3H]rauwolscine, 22° C., 45 minutes; RtCC and RbICB-[^3H]brimondine, 22° C., 90 minutes; CHO—C10, CHO—RNG and HT-29-[^3H]rauwolscine, 22° C., 30 minutes; HCC—[^3H]prazosin, 22° C., 30 minutes; and, in a final volume of 250 or 500 μl. At the end of the incubation period, the samples were filtered through glass fiber filters (Whatman GF/B) in a 24 or 96 well cell harvester and rapidly washed four times with 4 mls of iced-cold 50 mM Tris-HCl buffer. The filters were then oven dried and transferred to scintillation vials containing 10 mls of, Beckman's Ready Protein® scintillation cocktail for counting. […] Protein concentrations were determined with a protein assay kit from Bio Rad. […]

Compound | Ki [nM]
C1CCC(C2C3CCC(C3)C2NC2=NCCN2)CC1 (centres unmarked) | 288
CCCCNC1=NCCO1 | 150
CC(C)C1C2CCC(C2)C1NC1=NCCO1 (centres unmarked) | 43
CCCCC1C2CCC(C2)C1NC1=NCCO1 (centres unmarked) | 29
CCCCC1C2CCC(C2)C1NC1=NCCS1 (centres unmarked) | 58
